# Results reported in patent US20260258047A1, “COMPOSITIONS USEFUL FOR MODULATING SPLICING” (Skyhawk Therapeutics, Inc., priority 2023, published 2026).
# Test system: ATXN3 transcripts containing exon 4
# Assay: ATXN3 quantitative splicing assay (qPCR, E4E5 primers/probe)
# Assay type: cell-based
# Conditions: Human neuroblastoma SK-N-MC cells, 24 h treatment, qPCR of transcripts containing exon 4; read-out: ATXN3 Potency - Splicing E4E5 IC50
# Description: Human neuroblastoma SK-N-MC cells were plated in 384-well plates at 20,000 cells/well. Twenty-four hours after plating, cells were treated with compounds for 24 h at appropriate concentrations ranging from 30 μM to 0.6 nM (0.3% DMSO). Treated cells were lysed in 15 μL of lysis buffer, and cDNA was synthesized using the Fast Advanced Cells-to-Ct kit. Two μL of each cDNA was used in qPCR reactions to confirm the exon 4 skipped transcripts of ATXN3. A second set of primers/probe E4E5 was used to detect the transcripts containing exon 4. The third set of primers/probe E8E9 was used to detect total gene level of ATXN3. The qPCR reactions were prepared in 384-well plates in 10 μL volume, using TaqMan™ Fast Advanced Master Mix with primers and probes shown in the table below. Reactions were run in a Quant Studio 6 qPCR instrument with default settings.
# The primers and probes are listed below in Table 3.
row,SMILES,IC50 [nM]
1,"C[C@H](F)[C@H](N)Cc1cc2c(NCc3ncccc3F)nc(Cl)nn2c1Br [Compound 3, 6-((2R,3S)-2-amino-3-fluorobutyl)-7-bromo-2-chloro-N-((3-fluoropyridin-2-yl)methyl)pyrrolo[2,1-f][1,2,4]triazin-4-amine]",501 to 5000
2,"Cc1c(C[C@@H](N)[C@H](C)F)cc2c(NCc3ccncc3)nc(Cl)nn12 [Compound 5, 6-((2R,3S)-2-amino-3-fluorobutyl)-2-chloro-7-methyl-N-(pyridin-4-ylmethyl)pyrrolo[2,1-f][1,2,4]triazin-4-amine]",101 to 500
3,"Cc1c(C[C@@H](N)[C@H](C)F)cc2c(NCc3ccncn3)nc(Cl)nn12 [Compound 6, 6-((2R,3S)-2-amino-3-fluorobutyl)-2-chloro-7-methyl-N-(pyrimidin-4-ylmethyl)pyrrolo[2,1-f][1,2,4]triazin-4-amine]",101 to 500
4,"Cc1c(C[C@@H](N)[C@H](C)F)cc2c(NCc3ccncc3F)nc(Cl)nn12 [Compound 7, 6-((2R,3S)-2-amino-3-fluorobutyl)-2-chloro-N-((3-fluoropyridin-4-yl)methyl)-7-methylpyrrolo[2,1-f][1,2,4]triazin-4-amine]",101 to 500
5,"Cc1c(C[C@@H](N)CC2CC2)cc2c(NCc3ccncc3)nc(Cl)nn12 [Compound 8, (S)-6-(2-amino-3-cyclopropylpropyl)-2-chloro-7-methyl-N-(pyridin-4-ylmethyl)pyrrolo[2,1-f][1,2,4]triazin-4-amine]",501 to 5000
6,"Cc1c(C[C@@H](N)CC2CC2)cc2c(NCc3ccncn3)nc(Cl)nn12 [Compound 9, (S)-6-(2-amino-3-cyclopropylpropyl)-2-chloro-7-methyl-N-(pyrimidin-4-ylmethyl)pyrrolo[2,1-f][1,2,4]triazin-4-amine]",501 to 5000
7,"Cc1c(C[C@@H](N)CC2CC2)cc2c(NCc3ccncc3F)nc(Cl)nn12 [Compound 10, (S)-6-(2-amino-3-cyclopropylpropyl)-2-chloro-N-((3-fluoropyridin-4-yl)methyl)-7-methylpyrrolo[2,1-f][1,2,4]triazin-4-amine]",501 to 5000

# The next lines start with the values.
row,IC50 [nM],SMILES
1,0.01 to 100,"C[C@H](F)[C@H](N)Cc1cc2c(NCc3ccncc3F)nc(Cl)nn2c1Br [Compound 1, 6-((2R,3S)-2-amino-3-fluorobutyl)-7-bromo-2-chloro-N-((3-fluoropyridin-4-yl)methyl)pyrrolo[2,1-f][1,2,4]triazin-4-amine]"
2,0.01 to 100,"C[C@H](F)[C@H](N)Cc1cc2c(NCc3ccncn3)nc(Cl)nn2c1Br [Compound 2, 6-((2R,3S)-2-amino-3-fluorobutyl)-7-bromo-2-chloro-N-(pyrimidin-4-ylmethyl)pyrrolo[2,1-f][1,2,4]triazin-4-amine]"
3,101 to 500,"C[C@H](F)[C@H](N)Cc1cc2c(NCc3c(F)cncc3F)nc(Cl)nn2c1Br [Compound 4, 6-((2R,3S)-2-amino-3-fluorobutyl)-7-bromo-2-chloro-N-((3,5-difluoropyridin-4-yl)methyl)pyrrolo[2,1-f][1,2,4]triazin-4-amine]"
